According to ChEMBL document CHEMBL1201862, “PubChem BioAssay data set” (2004):
Calls of active or inactive are those of the source.

Columns and labels:
HEK293 [1] = assay: NOD2 signaling inhibitors in MDP-stimulated cells, cell-based, uHTS, luminescence (AID 2001); format: functional; conditions: Homo sapiens
HEK293 [2] = assay: cells; format: functional, cell-based; conditions: Homo sapiens
HEK293 [3] = assay: cells; format: functional, cell-based; conditions: Homo sapiens; remark: listed apart in the source
HEK293 [4] = assay: cells; conditions: Homo sapiens
HEK293 [5] = assay: NOD1 signaling inhibitors, primary screen, cell-based, luminescence, uHTS (AID 1578); format: functional; conditions: Homo sapiens
Tumor necrosis factor = Tumor necrosis factor (Homo sapiens, UniProt P01375); assay: TNFa-triggered NF-kB activation inhibitors, SAR follow-up, cell-based, revised (AID 2337); format: functional
[6] = biological target: Nucleotide-binding oligomerization domain-containing protein 1 (Homo sapiens, UniProt Q9Y239); assay: NOD1 signaling inhibitors, SAR follow-up, revised (AID 2333); format: functional
[7] = biological target: Voltage-dependent T-type calcium channel subunit alpha-1H (Homo sapiens, UniProt O95180); format: functional;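 also: channel activity triggered by adding a high calcium stimulation buffer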
[8] = biological target: Sphingosine 1-phosphate receptor 3 (Homo sapiens, UniProt Q99500); assay: Late stage counterscreen assay for S1P4 antagonists: Fluorescence dose response cell-based screening assay for antagonists of the Sphingosine 1-Phosphate Receptor 3 (S1P3). [Related pubchem assays (depositor defined):AID1510, AID1524, AID1692, AID1853, AID2332, AID489009, AID489017]; format: functional
[9] = biological target: Sphingosine 1-phosphate receptor 5 (Homo sapiens, UniProt Q9H228); assay: Late stage counterscreen assay for S1P4 antagonists: Fluorescence dose response cell-based screening assay for antagonists of the Sphingosine 1-Phosphate Receptor 5 (S1P5). [Related pubchem assays (depositor defined):AID1510, AID1524, AID1692, AID1853, AID2332, AID489009, AID489017]; format: functional
[10] = biological target: Sphingosine 1-phosphate receptor 1 (Homo sapiens, UniProt P21453); assay: Late stage counterscreen assay for S1P4 antagonists: Fluorescence dose response cell-based screening assay for antagonists of the Sphingosine 1-Phosphate Receptor 1 (S1P1). [Related pubchem assays (depositor defined):AID1510, AID1524, AID1692, AID1853, AID2332, AID489009, AID489017]; format: functional
[11] = biological target: Sphingosine 1-phosphate receptor 2 (Homo sapiens, UniProt O95136); assay: Late stage counterscreen assay for S1P4 antagonists: Fluorescence dose response cell-based screening assay for antagonists of the Sphingosine 1-Phosphate Receptor 2 (S1P2). [Related pubchem assays (depositor defined):AID1510, AID1524, AID1692, AID1853, AID2332, AID489009, AID489017]; format: functional
[12] = biological target: T1, Fructose-bisphosphate aldolase (Mycobacterium tuberculosis, UniProt P9WQA3); assay: Fluorescence-based biochemical high throughput dose response assay for inhibitors of the fructose-bisphosphate aldolase (FBA) of M. tuberculosis.; format: functional
T1 sequence (P9WQA3 whole entry): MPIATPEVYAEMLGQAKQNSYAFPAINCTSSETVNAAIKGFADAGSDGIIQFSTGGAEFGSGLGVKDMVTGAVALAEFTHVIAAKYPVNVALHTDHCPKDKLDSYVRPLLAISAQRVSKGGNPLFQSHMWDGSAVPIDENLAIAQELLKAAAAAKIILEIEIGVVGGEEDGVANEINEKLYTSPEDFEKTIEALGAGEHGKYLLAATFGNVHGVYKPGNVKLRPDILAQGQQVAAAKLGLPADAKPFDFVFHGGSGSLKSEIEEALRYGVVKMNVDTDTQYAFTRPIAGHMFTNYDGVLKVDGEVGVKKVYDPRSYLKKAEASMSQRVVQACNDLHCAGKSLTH

[13] = biological target: RNA-editing ligase 1, mitochondrial (Trypanosoma brucei brucei, UniProt P86926); assay: TbREL1 ligase inhibitors, dose response, biochemical, fluorescence, Trypanosoma brucei (AID 1117295); format: functional
[14] = biological target: T2, Carboxy-terminal domain RNA polymerase II polypeptide A small phosphatase 1 (Homo sapiens, UniProt Q9GZU7); assay: inhibitors of CTDSP1, concentration-response testing, biochemical assay, absorbance-based, actives from ultra-high-throughput screening (AID 540297); format: functional
T2 sequence (Q9GZU7 whole entry): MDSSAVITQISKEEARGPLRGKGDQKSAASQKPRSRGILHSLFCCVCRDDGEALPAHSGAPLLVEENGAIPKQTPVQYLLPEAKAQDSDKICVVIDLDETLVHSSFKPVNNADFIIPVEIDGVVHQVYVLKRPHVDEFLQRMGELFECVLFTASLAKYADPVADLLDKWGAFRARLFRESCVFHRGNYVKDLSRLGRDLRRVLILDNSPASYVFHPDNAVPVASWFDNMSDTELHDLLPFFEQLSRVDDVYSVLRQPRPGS

[15] = biological target: NAD-dependent protein deacylase sirtuin-5, mitochondrial (Homo sapiens, UniProt Q9NXA8); assay: SIRT5 desuccinylase inhibitors, dose response, biochemical, fluorescence imaging, cherry-pick, set 5 (AID 720591);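 also: desuccinylation of succinyl peptide AMC substrate read as fluorescence after trypsin release; potency of inhibitors that lower fluorescence and may act on trypsin instead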
[16] = growth induction of Burl-1 ts yeast mutant, dose response, counter-screen for SUMOylation pathway inhibitor project, whole organism, S. cerevisiae, luminescence (AID 463199); format: functional
[17] = biological target: T3, Kappa-type opioid receptor (Homo sapiens, UniProt P41145); assay: KOR agonist analogs, imaging readout, SAR follow-up, image-based (AID 2359); format: functional
[18] = biological target: T4, Delta-type opioid receptor (Homo sapiens, UniProt P41143); assay: DOR antagonists, SAR follow-up, image-based (AID 2357); format: functional
[19] = biological target: T5, Short transient receptor potential channel 4 (Mus musculus, UniProt Q9QUQ5); assay: mouse TRPC4 channel activators, dose response, cell-based, HEK293 TRPC4/mu-opioid, Fluo-4 calcium (AID 434937); format: functional
T5 sequence (Q9QUQ5 whole entry): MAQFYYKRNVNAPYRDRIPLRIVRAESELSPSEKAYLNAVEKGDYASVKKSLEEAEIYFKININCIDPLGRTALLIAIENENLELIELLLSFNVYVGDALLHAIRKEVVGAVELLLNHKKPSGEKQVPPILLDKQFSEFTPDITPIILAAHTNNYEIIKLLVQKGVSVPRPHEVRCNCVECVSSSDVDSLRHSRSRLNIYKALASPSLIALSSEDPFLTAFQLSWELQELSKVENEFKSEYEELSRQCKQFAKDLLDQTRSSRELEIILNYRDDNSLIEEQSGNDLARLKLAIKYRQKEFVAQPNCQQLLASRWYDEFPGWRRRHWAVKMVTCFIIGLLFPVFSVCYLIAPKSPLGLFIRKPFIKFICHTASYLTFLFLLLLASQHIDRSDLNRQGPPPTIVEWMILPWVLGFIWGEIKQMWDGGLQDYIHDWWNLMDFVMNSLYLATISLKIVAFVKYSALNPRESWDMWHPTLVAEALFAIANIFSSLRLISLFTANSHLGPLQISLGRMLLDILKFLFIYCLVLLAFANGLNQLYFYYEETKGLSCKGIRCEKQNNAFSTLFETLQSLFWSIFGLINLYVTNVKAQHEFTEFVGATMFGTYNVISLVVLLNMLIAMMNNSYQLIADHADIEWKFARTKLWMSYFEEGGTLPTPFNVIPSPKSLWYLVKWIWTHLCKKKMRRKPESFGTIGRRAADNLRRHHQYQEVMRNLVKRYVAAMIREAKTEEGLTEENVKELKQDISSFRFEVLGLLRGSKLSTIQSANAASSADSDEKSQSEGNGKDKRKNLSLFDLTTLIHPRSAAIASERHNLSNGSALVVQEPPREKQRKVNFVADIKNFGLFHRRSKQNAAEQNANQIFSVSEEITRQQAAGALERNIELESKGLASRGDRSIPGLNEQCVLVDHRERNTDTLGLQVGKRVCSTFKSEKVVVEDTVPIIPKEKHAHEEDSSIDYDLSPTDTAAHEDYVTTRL

Mu-type opioid receptor [20] = biological target: T6, Mu-type opioid receptor (Homo sapiens, UniProt P35372); assay: MOR agonists by imaging, SAR follow-up, image-based (AID 2352); format: functional
[21] = biological target: T3, Kappa-type opioid receptor; assay: kappa opioid receptor blockers, cell-based, luminescence, beta-arrestin, SAR follow-up (AID 2285); format: functional
[22] = biological target: T3, Kappa-type opioid receptor; assay: KOR antagonists by imaging, SAR follow-up, image-based (AID 2348); format: functional
[23] = biological target: T4, Delta-type opioid receptor; assay: DOR agonists, SAR follow-up, image-based (AID 2370); format: functional
Mu-type opioid receptor [24] = biological target: T6, Mu-type opioid receptor; assay: MOR antagonists, SAR follow-up, image-based (AID 2420); format: functional;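 also: compounds added before stimulation of receptor with agonist DAMGO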
[25] = biological target: T7, Ubiquitin-conjugating enzyme E2 N (Homo sapiens, UniProt P61088); format: functional
T7 sequence (P61088 whole entry): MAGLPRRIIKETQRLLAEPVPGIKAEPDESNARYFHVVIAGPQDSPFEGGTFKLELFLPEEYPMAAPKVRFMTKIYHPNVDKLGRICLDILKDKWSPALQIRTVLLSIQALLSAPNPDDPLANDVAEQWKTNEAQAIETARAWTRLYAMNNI

[26] = biological target: T7, Ubiquitin-conjugating enzyme E2 N; format: functional; remark: listed apart in the source
Bcl-2-related protein A1 = biological target: T8, Bcl-2-related protein A1 (Mus musculus, UniProt Q07440); format: functional;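 also: confirmatory dose–response counterscreen on Bfl-1, used to check hits from a UBC13 polyubiquitin inhibitor campaign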
T8 sequence (Q07440 whole entry): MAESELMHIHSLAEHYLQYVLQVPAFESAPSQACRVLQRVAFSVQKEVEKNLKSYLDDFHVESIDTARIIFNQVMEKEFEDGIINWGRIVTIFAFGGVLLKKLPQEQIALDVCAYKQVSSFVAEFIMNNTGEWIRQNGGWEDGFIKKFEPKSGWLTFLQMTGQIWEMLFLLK

Cannabinoid receptor 1 = Cannabinoid receptor 1 (Homo sapiens, UniProt P21554); assay: SAR analysis of antagonists of the Cannabinoid Receptor 1 using an Image-Based Assay. [Related pubchem assays (depositor defined):AID1961, AID1965]; format: functional
Cannabinoid receptor 2 [27] = biological target: T9, Cannabinoid receptor 2 (Homo sapiens, UniProt P34972); assay: SAR analysis of agonists of the Cannabinoid Receptor 2 using an Image-Based Assay - Set 2. [Related pubchem assays (depositor defined):AID1961, AID1965]; format: functional
[28] = biological target: G-protein coupled receptor 55 (Homo sapiens, UniProt Q9Y2T6); assay: SAR analysis of selective Agonists of GPR55 using an Image-Based Assay. [Related pubchem assays (depositor defined):AID1961, AID1965]; format: functional
Cannabinoid receptor 2 [29] = biological target: T9, Cannabinoid receptor 2; assay: SAR analysis of antagonists of the Cannabinoid Receptor 2 using an Image-Based Assay - Set 2. [Related pubchem assays (depositor defined):AID1961, AID1965]; format: functional
[30] = biological target: T3, Kappa-type opioid receptor; assay: SAR analysis of small molecule agonists of the kappa opioid receptor via a luminescent beta-arrestin assay - Set 3. [Related pubchem assays (depositor defined):AID1777, AID1785, AID1786, AID1966, AID2133, AID2136, AID2284, AID2500]; format: functional
[31] = biological target: Dual specificity protein phosphatase 3 (Homo sapiens, UniProt P51452); assay: SAR VHR1 Fluorescent Assay for In Vitro dose response studies Set 2. [Related pubchem assays (depositor defined):AID1654, AID1661, AID1878]; format: functional
[32] = biological target: Dual specificity protein phosphatase 6 (Rattus norvegicus, UniProt Q64346); format: functional;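 also: confirmatory in vitro dose-response testing of MKP-3 inhibition; recombinant His-tagged MKP-3 made in E. coli BL21 with OMFP substrate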
[33] = biological target: Signal transducer and activator of transcription 3 (Homo sapiens, UniProt P40763); assay: STAT3 inhibitors, late-stage profile, late-stage follow-up, cell-based, STAT1 panel, qPCR, cytotoxicity, panel member STAT3 Inhibition (AID 2078)
[34] = biological target: Signal transducer and activator of transcription 1-alpha/beta (Homo sapiens, UniProt P42224); assay: STAT3 inhibitors, late-stage profile, late-stage follow-up, cell-based, STAT1 panel, qPCR, cytotoxicity, panel member STAT1 Inhibition (AID 2078)
Chain of Signal transducer and activator of transcription 1-alpha/beta (P42224 whole entry): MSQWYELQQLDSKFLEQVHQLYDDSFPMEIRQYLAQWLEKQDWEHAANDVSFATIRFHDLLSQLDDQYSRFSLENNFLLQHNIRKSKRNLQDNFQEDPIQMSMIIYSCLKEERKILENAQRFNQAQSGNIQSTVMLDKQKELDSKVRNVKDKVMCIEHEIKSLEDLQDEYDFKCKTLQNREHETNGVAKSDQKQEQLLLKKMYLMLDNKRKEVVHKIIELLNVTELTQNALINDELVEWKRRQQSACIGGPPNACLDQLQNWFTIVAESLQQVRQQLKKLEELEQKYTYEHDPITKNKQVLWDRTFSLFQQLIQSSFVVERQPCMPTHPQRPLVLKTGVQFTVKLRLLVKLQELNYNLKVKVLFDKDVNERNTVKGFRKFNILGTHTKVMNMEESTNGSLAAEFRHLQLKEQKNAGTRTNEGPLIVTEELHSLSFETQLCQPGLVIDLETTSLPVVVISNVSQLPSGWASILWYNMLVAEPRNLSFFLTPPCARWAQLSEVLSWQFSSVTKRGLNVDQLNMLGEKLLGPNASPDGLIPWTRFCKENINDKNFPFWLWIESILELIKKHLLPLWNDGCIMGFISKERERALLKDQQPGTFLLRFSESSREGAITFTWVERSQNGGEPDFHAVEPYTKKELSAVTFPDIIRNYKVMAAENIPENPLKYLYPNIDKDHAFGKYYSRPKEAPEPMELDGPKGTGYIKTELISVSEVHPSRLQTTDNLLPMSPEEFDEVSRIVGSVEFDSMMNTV

T3 sequence (P41145 whole entry): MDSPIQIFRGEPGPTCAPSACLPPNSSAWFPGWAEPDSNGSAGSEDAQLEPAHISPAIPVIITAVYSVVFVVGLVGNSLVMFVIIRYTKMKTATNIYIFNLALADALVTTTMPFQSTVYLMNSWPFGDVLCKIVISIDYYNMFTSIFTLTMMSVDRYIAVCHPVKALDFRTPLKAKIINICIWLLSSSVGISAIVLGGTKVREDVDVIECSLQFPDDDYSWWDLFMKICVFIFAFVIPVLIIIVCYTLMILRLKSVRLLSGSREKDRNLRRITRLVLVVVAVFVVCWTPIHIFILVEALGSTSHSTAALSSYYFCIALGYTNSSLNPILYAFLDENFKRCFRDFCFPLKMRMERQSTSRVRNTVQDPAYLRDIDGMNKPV
T9 sequence (P34972 whole entry): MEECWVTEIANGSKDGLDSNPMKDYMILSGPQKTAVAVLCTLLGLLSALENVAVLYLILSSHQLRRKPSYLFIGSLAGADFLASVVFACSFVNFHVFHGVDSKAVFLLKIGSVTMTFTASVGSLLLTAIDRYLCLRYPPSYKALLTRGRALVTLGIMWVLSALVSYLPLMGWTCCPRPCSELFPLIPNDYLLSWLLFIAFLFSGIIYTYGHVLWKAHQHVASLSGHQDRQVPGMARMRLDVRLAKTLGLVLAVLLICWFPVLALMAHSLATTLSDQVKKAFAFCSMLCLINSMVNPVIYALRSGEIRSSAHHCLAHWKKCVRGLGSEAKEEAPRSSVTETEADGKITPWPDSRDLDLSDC
T4 sequence (P41143 whole entry): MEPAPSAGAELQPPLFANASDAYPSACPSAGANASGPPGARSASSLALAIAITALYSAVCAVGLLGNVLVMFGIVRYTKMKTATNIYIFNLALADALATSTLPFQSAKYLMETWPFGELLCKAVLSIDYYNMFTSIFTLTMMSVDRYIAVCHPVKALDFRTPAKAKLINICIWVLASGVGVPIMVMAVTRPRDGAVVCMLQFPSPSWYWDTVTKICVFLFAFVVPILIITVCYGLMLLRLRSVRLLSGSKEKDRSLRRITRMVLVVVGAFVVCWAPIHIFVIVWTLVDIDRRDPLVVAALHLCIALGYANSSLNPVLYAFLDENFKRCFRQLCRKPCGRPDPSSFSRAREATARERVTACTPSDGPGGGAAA
T6 sequence (P35372 whole entry): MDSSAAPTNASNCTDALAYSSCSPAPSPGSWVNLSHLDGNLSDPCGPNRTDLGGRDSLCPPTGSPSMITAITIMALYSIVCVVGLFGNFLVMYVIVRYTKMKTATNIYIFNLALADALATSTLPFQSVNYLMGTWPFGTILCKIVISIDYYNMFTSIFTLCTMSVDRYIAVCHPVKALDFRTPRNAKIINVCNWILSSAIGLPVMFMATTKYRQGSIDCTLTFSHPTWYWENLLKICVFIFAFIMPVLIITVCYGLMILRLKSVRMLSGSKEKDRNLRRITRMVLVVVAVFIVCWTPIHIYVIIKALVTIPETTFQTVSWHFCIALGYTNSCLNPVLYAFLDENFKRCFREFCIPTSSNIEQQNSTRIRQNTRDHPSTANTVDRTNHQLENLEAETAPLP
Chain of Cannabinoid receptor 1 (P21554 whole entry): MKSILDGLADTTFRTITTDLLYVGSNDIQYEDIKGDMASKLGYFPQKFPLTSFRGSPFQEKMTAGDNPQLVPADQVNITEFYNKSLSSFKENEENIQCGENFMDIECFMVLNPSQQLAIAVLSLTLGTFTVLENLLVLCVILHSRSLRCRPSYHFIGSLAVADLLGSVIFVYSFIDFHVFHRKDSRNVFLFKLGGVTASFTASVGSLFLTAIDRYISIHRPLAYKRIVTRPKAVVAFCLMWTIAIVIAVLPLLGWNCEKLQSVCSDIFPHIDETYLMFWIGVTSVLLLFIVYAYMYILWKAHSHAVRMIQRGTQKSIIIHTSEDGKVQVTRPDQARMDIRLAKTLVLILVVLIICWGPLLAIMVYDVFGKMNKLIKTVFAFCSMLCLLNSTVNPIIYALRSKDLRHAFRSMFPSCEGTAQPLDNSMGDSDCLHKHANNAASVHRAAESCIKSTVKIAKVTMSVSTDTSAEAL
Chain of NAD-dependent protein deacylase sirtuin-5, mitochondrial (Q9NXA8 whole entry): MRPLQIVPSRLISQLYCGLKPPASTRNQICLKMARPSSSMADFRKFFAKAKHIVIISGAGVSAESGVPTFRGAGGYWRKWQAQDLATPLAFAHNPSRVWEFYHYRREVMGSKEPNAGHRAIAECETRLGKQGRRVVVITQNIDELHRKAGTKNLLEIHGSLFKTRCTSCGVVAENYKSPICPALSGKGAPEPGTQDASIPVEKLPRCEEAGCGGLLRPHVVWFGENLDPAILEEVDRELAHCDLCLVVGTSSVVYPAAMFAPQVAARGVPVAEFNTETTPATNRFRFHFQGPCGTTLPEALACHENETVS
Chain of Dual specificity protein phosphatase 6 (Q64346 whole entry): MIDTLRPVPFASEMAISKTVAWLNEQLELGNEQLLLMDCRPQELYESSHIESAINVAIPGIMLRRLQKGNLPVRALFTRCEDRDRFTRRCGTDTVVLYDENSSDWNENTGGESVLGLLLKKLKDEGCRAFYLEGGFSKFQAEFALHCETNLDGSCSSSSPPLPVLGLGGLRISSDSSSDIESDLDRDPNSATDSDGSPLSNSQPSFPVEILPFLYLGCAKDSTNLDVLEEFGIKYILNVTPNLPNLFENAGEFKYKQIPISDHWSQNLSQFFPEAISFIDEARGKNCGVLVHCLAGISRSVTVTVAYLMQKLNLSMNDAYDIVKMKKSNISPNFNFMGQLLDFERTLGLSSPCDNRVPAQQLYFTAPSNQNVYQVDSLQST
Chain of Sphingosine 1-phosphate receptor 3 (Q99500 whole entry): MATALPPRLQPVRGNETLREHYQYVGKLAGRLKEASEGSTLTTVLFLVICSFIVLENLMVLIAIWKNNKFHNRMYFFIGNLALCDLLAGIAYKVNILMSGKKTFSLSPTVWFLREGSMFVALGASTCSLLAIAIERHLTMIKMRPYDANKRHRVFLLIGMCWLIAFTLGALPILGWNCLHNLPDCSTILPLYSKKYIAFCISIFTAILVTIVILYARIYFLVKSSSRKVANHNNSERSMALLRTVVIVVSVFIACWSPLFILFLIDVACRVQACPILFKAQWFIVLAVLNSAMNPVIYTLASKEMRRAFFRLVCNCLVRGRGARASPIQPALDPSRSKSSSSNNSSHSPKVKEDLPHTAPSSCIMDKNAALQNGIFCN
Chain of Dual specificity protein phosphatase 3 (P51452 whole entry): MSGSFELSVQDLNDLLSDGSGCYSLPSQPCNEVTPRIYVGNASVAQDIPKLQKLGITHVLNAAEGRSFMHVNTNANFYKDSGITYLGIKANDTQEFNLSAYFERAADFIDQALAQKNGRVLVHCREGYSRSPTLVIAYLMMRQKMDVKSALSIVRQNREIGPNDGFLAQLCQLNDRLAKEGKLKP
Chain of Nucleotide-binding oligomerization domain-containing protein 1 (Q9Y239 whole entry, the tested form may be a part): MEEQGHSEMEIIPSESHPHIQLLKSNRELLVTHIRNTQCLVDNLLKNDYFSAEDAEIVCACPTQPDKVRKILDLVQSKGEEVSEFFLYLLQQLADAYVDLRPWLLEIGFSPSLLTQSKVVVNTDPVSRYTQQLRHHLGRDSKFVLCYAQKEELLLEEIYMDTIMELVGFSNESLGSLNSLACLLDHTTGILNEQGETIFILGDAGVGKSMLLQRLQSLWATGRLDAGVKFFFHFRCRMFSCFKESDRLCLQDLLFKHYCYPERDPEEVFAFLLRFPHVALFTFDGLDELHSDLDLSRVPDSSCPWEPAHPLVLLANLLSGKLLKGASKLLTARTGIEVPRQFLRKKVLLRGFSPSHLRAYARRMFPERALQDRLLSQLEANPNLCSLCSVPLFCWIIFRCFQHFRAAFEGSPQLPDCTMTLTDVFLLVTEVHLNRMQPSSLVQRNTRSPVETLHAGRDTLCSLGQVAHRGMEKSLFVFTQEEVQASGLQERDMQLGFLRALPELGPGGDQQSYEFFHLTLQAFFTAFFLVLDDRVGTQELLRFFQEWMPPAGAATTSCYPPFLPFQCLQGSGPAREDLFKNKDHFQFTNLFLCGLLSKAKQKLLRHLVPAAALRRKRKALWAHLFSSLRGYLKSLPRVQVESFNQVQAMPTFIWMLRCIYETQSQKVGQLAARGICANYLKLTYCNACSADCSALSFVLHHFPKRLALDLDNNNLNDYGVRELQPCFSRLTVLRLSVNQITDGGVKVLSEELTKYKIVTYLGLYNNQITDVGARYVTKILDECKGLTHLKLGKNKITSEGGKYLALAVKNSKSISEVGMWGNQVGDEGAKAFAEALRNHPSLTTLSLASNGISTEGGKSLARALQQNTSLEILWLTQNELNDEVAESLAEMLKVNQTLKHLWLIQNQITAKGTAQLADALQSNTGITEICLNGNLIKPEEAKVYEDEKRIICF

NC(=O)c1ccc(N2CCN(S(=O)(=O)c3ccccc3)CC2)c([N+](=O)[O-])c1
IC50 (HEK293 [1]): > 20 µM (inactive)
IC50 (HEK293 [2]): > 20 µM (inactive)
IC50 (HEK293 [3]): 16 µM (active)
IC50 (HEK293 [4]): > 20 µM (inactive)
EC50 (HEK293 [5]): 4.72 µM (active)
IC50 (Tumor necrosis factor): > 20 µM (inactive)
IC50 [6]: 5.86 µM (active)

Cc1cccc(C)c1NC(=O)c1ccc(-c2ccc(Cl)cc2Cl)o1
EC50 [7]: 5.94 µM (active)
IC50 [8]: 25.4 µM (inactive)
IC50 [9]: 9.62 µM (active)
IC50 [10]: > 25 µM (inactive)
IC50 [11]: 14.2 µM (inactive)

CCCSc1nnc(NC(=O)CSc2sc3c(O)cc(O)nc3c2C#N)s1
IC50 [12]: > 9.99 µM (inactive)
IC50 [13]: 50.7 µM (inactive)
IC50 [14]: 3.46 µM (active)
AC50 [15]: > 30 µM (inactive)
AC50 [16]: 106 µM (active)

CC(=O)c1ccc(S(=O)(=O)NCc2ccc(C(=O)NCC(c3ccccc3)N(C)C)cc2)cc1 (stereo not drawn)
EC50 [17]: > 32 µM (inactive)
IC50 [18]: > 32 µM (inactive)
EC50 [19]: 0.596 µM (active)
EC50 (Mu-type opioid receptor [20]): > 32 µM (inactive)
IC50 [21]: 6.72 µM (active)
IC50 [22]: 4.73 µM (active)
EC50 [23]: 1.6 µM (active)
IC50 (Mu-type opioid receptor [24]): 1.92 µM (active)

NCCCn1c(C(=O)c2cc(Cl)c(N)c(Cl)c2)c2ccccc2[n+]1[O-]
IC50 [25]: 5.33 µM (active)
IC50 [26]: 12.9 µM (active)
EC50 [19]: 1.88 µM (active)
IC50 (Bcl-2-related protein A1): > 20 µM (inactive)

COc1ccc(-c2csc(NC(=O)CSc3nnc4c(C)cc5ccccc5n34)n2)cc1
IC50 (Cannabinoid receptor 1): > 32 µM (inactive)
EC50 (Cannabinoid receptor 2 [27]): > 32 µM (inactive)
EC50 [28]: 0.658 µM (active)
IC50 (Cannabinoid receptor 2 [29]): > 32 µM (inactive)

Brc1ccc(CSc2nnc(-c3ccc(Br)cc3)n2Cc2ccco2)cc1
EC50 [30]: 11.3 µM (inactive)

COc1ccc(C(=O)NC2CCSc3ccccc32)cc1S(N)(=O)=O (stereo not drawn)
IC50 [31]: > 100 µM (inactive)
IC50 [32]: > 100 µM (inactive)

c1ccc(CC2CCN(c3ncnc4scc(-c5ccccc5)c34)CC2)cc1
IC50 [33]: > 55.7 µM (inactive)
IC50 [34]: > 55.7 µM (inactive)
